Test results as given in US9212209B2, “Screening methods for spinal muscular atrophy” (Indiana University Research and Technology Corporation, priority 2012, dated 2015).

System: SMN2-luciferase reporter
Assay: SMN2-luciferase reporter assay (clonal HEK-293 SMN2-luc cells)
Assay type: cell-based, human
Parameters: % activation: concentration or dose not given beside the values
Details: for Active / % activation: reporter assay; for Active / EC50 / Emax: Table 6; for EC50 / Emax: Homo sapiens, HEK293, reporter assay; for EC50: read-out: Ec50; for Emax: read-out: Max % Activity; for % activation: Table 5
Description: The reporter cell lines were plated at 50,000 cells per well in 96-well plates and incubated overnight. Compounds were added to each well and incubated at 37° C. overnight. The final DMSO concentration was 0.1%. Luciferase activity was assayed using either STEADYGLO (PROMEGA E2510) or DUALGLO (PROMEGA E2920) luciferase using the WALLAC ENVISION multilabel reader. For detailed assay conditions see Table 2A. All data points were transformed from CPS to percent increase over basal expression in the treated control wells (DMSO or H2O as appropriate).
Plates were sealed with porous paper tape and incubated for 24 hours. […] For comparison, data points were transformed from CPS to percent activation over basal expression in the DMSO treated control wells.
For comparison, all data points are expressed as percent increase over basal luciferase expression in the control cells.

| SMILES | Active | EC50 | Emax | % activation |
| --- | --- | --- | --- | --- |
| CC1CC(C(=O)NC2CCCc3ccccc32)=NO1 (centres unmarked) [CAL-1] | No | – | – | – |
| CC1CC(C(=O)Nc2cnccn2)=NO1 (centres unmarked) [CAL-2] | No | – | – | – |
| Cc1cc(NC(=O)C2=NOC(C)C2)no1 (centres unmarked) [CAL-3] | No | – | – | – |
| COc1ccc(NC(=O)C2=NOC(C)C2)cc1 (centres unmarked) [CAL-4] | Yes | 8000 nM | 211% | – |
| CC1CC(C(=O)Nc2ccc(F)cc2)=NO1 (centres unmarked) [CAL-5] | Yes | 10000 nM | 108% | – |
| CC1CC(C(=O)Nc2ccc(Cl)cc2F)=NO1 (centres unmarked) [CAL-6] | Yes | 6500 nM | 180% | – |
| O=C(Nc1ccc(Cl)cc1)C1=NOC(c2ccccc2)C1 (centres unmarked) [CAL-7] | Yes | 10000 nM | 134% | – |
| CC1CC(C(=O)Nc2ccc(F)c(Cl)c2)=NO1 (centres unmarked) [CAL-8] | Weak | 10000 nM | 120% | – |
| CC1CC(C(=O)Nc2cccnc2)=NO1 (centres unmarked) [CAL-9] | No | – | – | – |
| O=C(Nc1ccc(F)c(Cl)c1)C1=NOC(C2CC2)C1 (centres unmarked) [CAL-10] | Yes | 2000 nM | 250% | – |
| COc1cc2c(c(OC)c1OC)C(c1ccccc1Cl)CC(=O)N2 (centres unmarked) [CAL-21] | Yes | 251000 nM | 14% | – |
| COc1cc2c(c(OC)c1OC)C(c1ccccc1F)CC(=O)N2 (centres unmarked) [CAL-22] | No | – | – | – |
| COc1ccc2c(c1OC)C(c1cc(Br)ccc1F)CC(=O)N2 (centres unmarked) [CAL-23] | No | – | – | – |
| CC(C)c1cc(C(=O)Nc2cccc(Cl)c2)no1 [CAL-25] | Yes | 350 nM | 237% | – |
| COc1ccc(NC(=O)c2cc(C(C)C)on2)cc1OC [CAL-26] | Yes | 94000 nM | 160% | – |
| COc1ccc(NC(=O)c2cc(C(C)C)on2)c(OC)c1 [CAL-27] | Yes | 1000 nM | 125% | – |
| CC(C)c1cc(C(=O)Nc2cc(Cl)ccc2Cl)no1 [CAL-28] | Yes | 900 nM | 59% | – |
| COc1ccc(Cl)cc1NC(=O)c1cc(C(C)C)on1 [CAL-29] | No | – | – | – |
| C=C/C(Cl)=C(\CCl)NC(=O)c1cc(C(C)C)on1 [CAL-30] | No | – | – | – |
| CC(C)c1cc(C(=O)Nc2ccccc2C(F)(F)F)no1 [CAL-31] | Yes | 16000 nM | 154% | – |
| O=C(Nc1ccc2c(c1)OCO2)c1cc(C2CC2)on1 [CAL-33] | Yes | 1700 nM | 217% | – |
| O=C(c1cc(C2CC2)on1)N1CCCc2ccccc21 [CAL-36] | No | – | – | – |
| CN(C(=O)c1cc(C2CC2)on1)c1ccccc1 [CAL-37] | Yes | 30000 nM | 143% | – |
| O=C(Nc1ccc(F)c(Cl)c1)c1noc(C2CC2)c1[N+](=O)[O-] [CAL-38] | No | – | – | – |
| CCN(CC)CCCNC(=O)c1cc(C2CC2)on1 [CAL-42] | No | – | – | – |
| CCOc1ccc(Br)cc1C1CC(=O)Nc2cc(OC)c(OC)c(OC)c21 (centres unmarked) [CAL-50] | No | – | – | – |
| COc1cc(Br)c(C2CC(=O)Nc3cc(OC)c(OC)c(OC)c32)cc1OC (centres unmarked) [CAL-51] | No | – | – | – |

| SMILES | Active | EC50 | Emax | % activation |
| --- | --- | --- | --- | --- |
| COc1cc2c(c(OC)c1)C(c1cc3c(cc1Br)OCO3)CC(=O)N2 (centres unmarked) [CAL-52] | No | – | – | – |
| COc1cc2c(c(OC)c1OC)C(c1c(F)cccc1Cl)CC(=O)N2 (centres unmarked) [CAL-53] | Yes | 91000 nM | 27% | – |
| COc1cc2c(c(OC)c1OC)C(c1cccc(C(F)(F)F)c1)CC(=O)N2 (centres unmarked) [CAL-55] | No | – | – | – |
| COc1cc2c(c(OC)c1OC)C(c1cccc(Cl)c1Cl)CC(=O)N2 (centres unmarked) [CAL-56] | No | – | – | – |
| COc1cc2c(c(OC)c1OC)C(c1ccc(F)c(F)c1)CC(=O)N2 (centres unmarked) [CAL-57] | No | – | – | – |
| COc1ccc(-c2cn3cccc(C)c3n2)cc1Br [Compound 32531] | – | – | – | 108% |
| Brc1ccc(-c2cn3ccccc3n2)cc1 [Compound 66278] | – | – | – | 114% |
| CC(=O)N1c2ccccc2C(Nc2ccccc2)CC1C (centres unmarked) [Compound 66854] | – | – | – | 210% |
| Brc1ccc(OCc2cn3cccnc3n2)c(Br)c1 [Compound 67615] | – | – | – | 105% |
| Cc1ccc(-c2cc(-c3ccccc3Cl)[nH]n2)c(O)c1 [Compound 72939] | – | – | – | 102% |
| Cc1c(C(=O)NCCC(C)C)oc2ccc3c(c12)C(O)CC(C)(C)O3 (centres unmarked) [Compound 79199] | – | – | – | 102% |
| CNC(=O)c1ccc2nc(N3CCCCC3)sc2c1 [Compound 79213] | – | – | – | 90% |
| O=C1CCc2cc(C(=O)CSc3ccccc3)ccc2N1 [Compound 98541] | – | – | – | 124% |
| O=C(NCCn1ccc2ccccc21)c1ccc2c(c1)OCO2 [Compound 107992] | – | – | – | 121% |
| CCN1C(=O)c2cccc3c(S(=O)(=O)NC4CCCC4)ccc1c23 [Compound 109657] | – | – | – | 152% |
| CC(C)(C)C(=O)Nc1nc(COc2ccccc2)cs1 [Compound 109981] | – | – | – | 98% |
| COC(=O)c1ccc2nc(NC(=O)C(C)C)sc2c1 [Compound 110116] | – | – | – | 97% |
| O=C(Nc1nc2c(s1)Cc1ccccc1-2)C1=COCCO1 [Compound 110181] | – | – | – | 120% |
| N#Cc1ccsc1NC(=O)CCc1ccccc1 [Compound 110425] | – | – | – | 93% |
| CC(C)c1cc(C(=O)Nc2ccc3c(c2)OCO3)no1 [LDN-75676] | Yes | 2600 nM | 337% | 136% |
| CC(C)Cc1cc(C(=O)Nc2ccc(F)c(Cl)c2)no1 [LDN-75879] | Yes | 1500 nM | 180% | – |
| COc1cc2c(c(OC)c1OC)C(c1ccc(Cl)cc1Cl)CC(=O)N2 (centres unmarked) [LDN-76074] | No/Weak | – | – | – |
| COc1cc2c(c(OC)c1OC)C(c1cccnc1)CC(=O)N2 (centres unmarked) [LDN-76158] | No | – | – | – |
| COc1cc2c(c(OC)c1)C(c1c(Cl)cccc1Cl)CC(=O)N2 (centres unmarked) [LDN-76515] | No | – | – | – |
| CC(C)c1cc(C(=O)Nc2ccc3ccccc3c2)no1 [LDN-211826] | Yes | 1100 nM | 150% | – |
| CC(C)c1cc(C(=O)Nc2cccc3ccccc23)no1 [LDN-211827] | No/Weak | – | – | – |
| O=C(Nc1ccc(F)c(Cl)c1)c1cc(C2CCCC2)on1 [LDN-211828] | Yes | 20000 nM | 100% | – |

| SMILES | Active | EC50 | Emax | % activation |
| --- | --- | --- | --- | --- |
| O=C(Nc1ccc(F)c(Cl)c1)c1cc(C2CCCCC2)on1 [LDN-211829] | No/Weak | – | – | – |
| CC(C)c1cc(C(=O)Nc2ccc(F)c(Cl)c2)n[nH]1 [LDN-211830] | No | – | – | – |
| CC(C)(C)c1cc(NC(=O)c2ccc(F)c(Cl)c2)no1 [LDN-211831] | Yes | 3000 nM | 150% | – |
| CC(C)c1cc(NC(=O)Cc2ccc(F)c(Cl)c2)no1 [LDN-211832] | No | – | – | – |
| CC(C)c1cc(C(=O)NCc2ccc(F)c(Cl)c2)no1 [LDN-211834] | No | – | – | – |
| CC(C)(C)c1cc(NC(=O)c2ccc3ccccc3c2)no1 [LDN-211854] | Yes | 500 nM | 200% | – |
| O=C(Nc1ccc(F)c(Cl)c1)c1cc(Cc2ccccc2)on1 [LDN-211855] | Yes | 1500 nM | 125% | – |
| CC(C)c1cc(C(=O)Nc2ccc(F)c(Cl)c2)nn1C [LDN-211856] | No | – | – | – |
| CC(C)c1cc(C(=O)Nc2ccc(F)c(Cl)c2)n(C)n1 [LDN-211857] | No | – | – | – |
| CC(C)(C)c1cc(C(=O)Nc2ccc(F)c(Cl)c2)no1 [LDN-211858] | No | – | – | – |
| CC(C)(C)c1cc(NS(=O)(=O)c2ccc3ccccc3c2)no1 [LDN-211859] | No | – | – | – |
| CC(C)c1cc(NC(=O)c2ccc(F)c(Cl)c2)on1 [LDN-211860] | Yes | 2500 nM | 125% | – |
| CC(C)(C)c1cc(NC(=O)c2ccc(F)c(Cl)c2)on1 [LDN-211861] | Yes | 3700 nM | 100% | – |
| CC(C)C1CC(C(=O)Nc2ccc(F)c(Cl)c2)=NO1 (centres unmarked) [LDN-211862] | Nonspecific | – | – | – |
| CC(C)(C)c1cc(NC(=O)c2cnc3ccccc3c2)no1 [LDN-211906] | Yes | 800 nM | 250% | – |
| CC(C)(C)c1cc(NC(=O)c2cnc3ccccc3n2)no1 [LDN-211907] | No/Weak | – | – | – |
| CC(C)(C)c1cc(NC(=O)c2ccc3ccccc3n2)no1 [LDN-211908] | No/Weak | – | – | – |
| CC(C)(C)c1cc(NC(=O)c2cc3ccccc3o2)no1 [LDN-211909] | No/Weak | – | – | – |
| Cn1c(C(=O)Nc2cc(C(C)(C)C)on2)cc2ccccc21 [LDN-211910] | Yes | 700 nM | 100% | – |
| CC(C)(C)c1cc(NC(=O)c2cc3ccccc3[nH]2)no1 [LDN-211911] | Yes | 400 nM | 175% | – |
| Cc1ccc(C(=O)Nc2cc(C(C)(C)C)on2)cc1C [LDN-211912] | Yes | 1100 nM | 150% | – |
| CC(C)(C)c1nnc(NC(=O)c2ccc(F)c(Cl)c2)s1 [LDN-211981] | Yes | 5900 nM | 100% | – |
| O=C(Nc1nnc(-c2ccccc2)s1)c1ccc(F)c(Cl)c1 [LDN-211982] | No | – | – | – |
| O=C(Nc1nc(-c2ccccc2)cs1)c1ccc(F)c(Cl)c1 [LDN-211983] | No | – | – | – |
| Cc1csc(NC(=O)c2ccc(F)c(Cl)c2)n1 [LDN-211984] | Yes | 2100 nM | 200% | – |
